Reference: US10980876B2, “Conjugate vaccine targeting a disease-causing biological protein” (OSAKA UNIVERSITY, priority 2016, dated 2021)
Like-named read-outs stand apart in the source and are kept apart here.

What was measured:
B16F10 melanoma cells [1] = conditions: 350 μg/mouse, vaccination started on day of implantation of B16F10 (3×10^5 cells/mouse)
Description: The antitumor effect of the same OSK-1-WT1 conjugate as used in Reference Example 1 was assessed. For this test, the following four groups were prepared: a physiological saline group, a WT1 peptide (100 μg/mouse) plus poly(I:C) (InvivoGen; Poly (I:C) HMW VacciGrade, 50 μg/mouse) group, an OSK-1-WT1 conjugate (350 μg/mouse) group and a cisplatin (5 mg/kg) group (10 animals per group). B16F10 melanoma cells (3×10^5 cells/mouse) were implanted to C57BL/6J mice, and at the same day, the vaccines were intracutaneously administered into the dorsal skin. The day of cell implantation was designated as Day 0. The vaccines were administered on Day 7, Day 14, Day 21, Day 28 and Day 35. Twice a week after the cell implantation, the diameter of the tumor was measured using a digital caliper, and the tumor volume was calculated by the formula: (major axis)×(minor axis)^2.

B16F10 melanoma cells [2] = conditions: vaccination once a week 4 times before implantation of B16F10 (1×10^5 cells/mouse)
Description: In addition, the adjuvant effect of the OSK-1 peptide on the antitumor effect of a WT1 peptide vaccine was also examined. For this test, the following four groups were prepared: a physiological saline group, a WT1 peptide (100 μg/mouse) plus poly(I:C) (InvivoGen; Poly(I:C) HMW VacciGrade, 50 μg/mouse) group, a WT1 peptide (100 μg/mouse) plus OSK-1 peptide (100 μg/mouse) group and an OSK-1-WT1 conjugate (350 μg/mouse) group (6 animals per group). The vaccines were administered to C57BL/6J mice once a week, 4 times in total. One week after the 4th administration, B16F10 melanoma cells (1×10^5 cells/mouse) were implanted into the dorsal skin. The vaccines were administered again one week after the cell implantation. The body weight and the diameter of the tumor were measured twice a week after the cell implantation. The diameter of the tumor was measured using a digital caliper, and the tumor volume was calculated by the formula: (major axis)×(minor axis)^2.

DPP4 epitope peptide [3] = conditions: 4 administrations; blood at 11 weeks; FIG. 3
Description: For this test, the following three groups were prepared: an OSK-1-DPP4 conjugate group (100 μg/mouse), a KLH-DPP4 conjugate (20 μg/mouse) plus Alum (Alhydrogel 2% (InvivoGen) 1 mg/mouse) group and a KLH-DPP4 conjugate (20 μg/mouse) plus OSK-1 (100 μg/mouse) group. Test samples were intracutaneously administered to Balb/c mice 3 times at 2-week intervals and at 9 weeks after the start of the administration, 4 times in total. At 11 weeks after the start of the administration, blood samples were collected, and the titer of each IgG subclass of antibodies against the DPP4 epitope peptide was measured by ELISA.

DPP4 = conditions: OSK-1-DPP4-17 100 μg/mouse; KLH-DPP4-17 20 μg/mouse mixed with Alum 1 mg/mouse; 4 administrations; 21 weeks; FIG. 8
Description: To a KLH-DPP4-17 group of mice, KLH-DPP4-17 and Alum (Alhydrogel 2% (InvivoGen)) were intracutaneously administered as a mixture at doses of 20 μg/mouse and 1 mg/mouse, respectively. To an OSK-1-DPP4-17 group of mice, OSK-1-DPP4-17 was intracutaneously administered at a dose of 100 μg/mouse. In either group, the conjugate was intracutaneously administered to Balb/c mice 3 times at 2-week intervals, and the 4th administration was performed at 11 weeks after the first administration. At 21 weeks after the first administration, blood samples were collected, and the amount of serum IgE antibody against DPP4 was measured by ELISA.

DPP4 epitope peptide [4] = system: DPP4 epitope peptide
Description: For this test, the following two groups were prepared: a physiological saline group and an OSK-1-DPP4 conjugate group (100 μg/mouse) (6 animals per group). Test samples were intracutaneously administered to Balb/c mice 3 times at 2-week intervals. Before the first administration and every 2 weeks until 8 weeks after the first administration, blood samples were collected, and the antibody titer against the DPP4 epitope peptide was measured by ELISA.
For this test, the following three groups were prepared: a KLH-DPP4 conjugate group (20 μg/mouse), an OSK-1-DPP4 conjugate group (100 μg/mouse) and an OSK-1-DPP4 conjugate (100 μg/mouse) plus Alum (Alhydrogel 2% (InvivoGen) 1 mg/mouse) group (2 animals per group). […] Before the first administration, every 2 weeks until 6 weeks after the first administration, and 12 weeks after the first administration, blood samples were collected, and the antibody titer against the DPP4 epitope peptide was measured by ELISA.
Six types of OSK-1-DPP4 conjugates containing different mouse DPP4 epitope peptides (SEQ ID NOs: 3, 5, 6, 8, 18 and 19) were intracutaneously administered to Balb/c mice at a dose of 100 μg per animal 3 times at 2-week intervals. Before the first administration and every 2 weeks after the first administration, blood samples were collected, and the antibody titer against each epitope peptide was measured by ELISA. […]

| Substance | inhibitory effect on tumor growth (tumor volume) (B16F10 melanoma cells [1]; FIG. 6) | survival benefit (survival rate) (B16F10 melanoma cells [1]; FIG. 7) | inhibitory effect on tumor growth (tumor volume) (B16F10 melanoma cells [2]; FIG. 4) | survival benefit (survival rate) (B16F10 melanoma cells [2]; FIG. 5) | titer of each IgG subclass of antibodies against the DPP4 epitope peptide (DPP4 epitope peptide [3]) | IgE production against the target protein (serum IgE antibody against DPP4) (DPP4) | antibody production against the DPP4 epitope peptide (antibody titer, ELISA) (DPP4 epitope peptide [4]; 100 μg/mouse intracutaneously 3 times at 2-week intervals, blood until 8 weeks, FIG. 1) | antibody production-inducing capability (antibody titer against the DPP4 epitope peptide) (DPP4 epitope peptide [4]; OSK-1-DPP4 100 μg/mouse, KLH-DPP4 20 μg/mouse, Alum 1 mg/mouse, 3 times at 2-week intervals, up to 12 weeks, FIG. 2) |
| --- | --- | --- | --- | --- | --- | --- | --- | --- |
| Ac-ELKLIFLHRLKRLRKRLKRK-X-RMFPNAPYL (X=ε-Acp) [OSK-1-WT1 conjugate] | modest, but the tumor volume was kept at lower levels than that of the physiological saline administration group (negative control) until Day 32 | comparable to those in the WT1 peptide plus poly(I:C) group and the cisplatin group | the inhibitory effect on tumor growth and the survival benefit were observed | the inhibitory effect on tumor growth and the survival benefit were observed | – | – | – | – |
| Ac-ELKLIFLHRLKRLRKRLKRK-X-ENSTFESFG (X=ε-Acp) [OSK1-DPP4-17] | – | – | – | – | IgG2a and IgG2b, which are Th1-type IgG subclasses, were also produced at high levels in addition to IgG1 | no IgE production against the target protein was observed | antibody production against the DPP4 epitope peptide was observed | comparable to that of the KLH-DPP4 conjugate |
